One compound from patent US20190030053A1, “COMPOSITION FOR INCREASING EXPRESSION OF PGC-1alpha” (BENEBIOSIS CO., LTD., priority 2016, published 2019) can be followed below.

The subject of this test is PGC-1α protein. The test can be described thus: PGC-1α protein expression in brain and hippocampus of old mouse models (western blot). It is filed as in vivo. The conditions noted are these: ICR mice, oral 0.1 mg/kg/day, 42 weeks. The protocol: In order to investigate the relative protein expression in the brain compared with before SL (3′-SL & 6′-SL) aministration, 4-week-old ICR mice were purchased from Central Lab Animal (Korea). Water was freely accessible, and a commercially available pellet feed (Dooyeul Biotech, Korea) was given for two weeks. […]
Sialyllactose or DW was orally administered daily. […] The dietary intake and body weight change were measured every 5 days. […]
In FIG. 2b, BB1 6′ represents 6′-SL. The “PGC-1α protein expression level” and “GAPDH protein expression level” in each site were quantified, and the relative ratio of the values, (PGC-1α protein expression level)/(GAPDH protein expression level) was numerically expressed for the control group, 3′-SL administration group, and 6′-SL administration group. […]
(Immunoblotting shows a protein as a band on a membrane.)

As for `CC(=O)N[C@H]1[C@H]([C@H](O)[C@H](O)CO)O[C@@](OC[C@H]2O[C@@H](O[C@H]3[C@H](O)[C@@H](O)[C@H](O)O[C@@H]3CO)[C@H](O)[C@@H](O)[C@H]2O)(C(=O)O)C[C@@H]1O` [6′-SL, α-NeuNAc-(2→6)-β-D-Gal-(1→4)-D-Glc], the “PGC-1α protein expression level (PGC-1α/GAPDH) vs negative control” value is “much higher”.
